| SMILES | melting point [°C] |
| --- | --- |
| Cc1ccc(NCCSC#N)c([N+](=O)[O-])c1 | 123 to 125 |
| Cc1c(C)n(Cc2ccccc2)c(=O)[nH]c1=O | 187 to 189 |
| CS(=O)(=O)c1ccc(Oc2ccc([N+](=O)[O-])cc2C#N)cc1 | 205 to 206 |
| CC1=C(C#N)S(=O)(=O)c2ccc(C(F)(F)F)cc2N1 | 329 to 333 |
| Cc1nc(-c2c(Cl)cc(C(F)(F)F)cc2Cl)[nH]c1C | 281 to 282 |
| CC1(c2ccc(S(N)(=O)=O)cc2)Cc2cc(OCC(=O)O)c(Cl)c(Cl)c2C1=O (centres undefined) | 258 to 260 |
| Cn1ccnc1COc1ccc(-c2cc(-c3c[nH]nc3-c3ccccn3)ccn2)cc1 | 112 |
| COc1ccc(CC(=O)NC(NC(Cc2cccnc2C)=NC#N)C(C)(C)C)cc1OC (centres undefined) | 164 to 165 |
| COc1ccc(CCc2c(Cc3ccccc3)sc3ccccc23)cc1 | 68 to 70 |
| NCC1Cc2cccc(-c3ccccc3C(F)(F)F)c2O1 (centres undefined) | 109 to 111 |
| CC=CC(=O)N(CCCC(=O)O)C(C)(C)CC(C)(C)C | 92 to 93 |
| CC(C)(C)CN(CC(O)C(Cc1ccccc1)NC(=O)C(CC(N)=O)NC(=O)NCc1ccccc1)C(=O)NC(C)(C)C (centres undefined) | 177 to 178 |
| O=C(O)C(c1ccc(Cl)cc1)c1c(Cl)cc(-n2ncc(=O)[nH]c2=O)cc1Cl (centres undefined) | 220 |
| Cc1ccc(NC(=O)c2cccc(C(F)(F)F)c2)cc1-c1ccc2ccncc2c1 | 148 to 152 |
| N#Cc1c(SC(F)(F)F)c(N)n(-c2c(Cl)cc(C(F)(F)F)cc2Cl)c1C#N | 175 to 177 |
| CCOC(=O)/C=C/c1ccc(/C=C/c2c(OC)cc3c(c2OC)C(C)(C)CCC3(C)C)cc1 | 205 to 207 |

| SMILES | melting point [°C] |
| --- | --- |
| CCCCCCCNC(=O)N(C)c1cccc(-c2ccc(CCC(=O)O)cc2)c1 | 101 |
| O=c1c(CCCCCc2cccnc2)cc2cccnc2n1-c1cccc([N+](=O)[O-])c1 | 155 |
| CC1(C)OCc2cc(Cl)cc(C(O)c3cn(C(c4ccccc4)(c4ccccc4)c4ccccc4)cn3)c2O1 (centres undefined) | 120 |
| CC(CF)(CF)C(=O)C(Br)Oc1ccc(Cl)cc1 (centres undefined) | 54 to 57 |
| Cn1cnnc1C(O)(c1ccc(Cl)cc1)c1ccc2c(c1)c(-c1cccc(Cl)c1)cc(=O)n2C (centres undefined) | 182 |
| CCCCCCCCC1(CCCCCCCC)c2cc(Br)ccc2-c2ccc(Br)cc21 | 52 to 54 |
| Nc1cc(Cl)nc(Cl)c1N | 186 to 188 |
| O=C1NC(=O)c2c(Cl)cccc21 | 236 to 238 |
| CC(C)(C)OC(=O)N(C(=O)OC(C)(C)C)c1c(C#CBr)c(C#N)nn1-c1c(Cl)cc(C(F)(F)F)cc1Cl | 130 to 131 |
| CN1CC=C(c2c[nH]c3ccc(NC(=N)c4cccs4)cc23)CC1 | 215 to 218 |
| CCOC(=O)Cc1coc2c(OC)ccc(C(=O)Cc3c(Cl)cncc3Cl)c12 | 105 to 115 |
| COc1ccnc(CS(=O)c2nc3cc(OC(F)F)ccc3n2S(=O)(=O)c2ccc(Cl)cc2)c1OC (centres undefined) | 82 to 83 |
| CC1(C)C=Cc2c(c3ccccc3[nH]c2=O)O1 | 174 to 177 |
| CCCc1c(O)ccc2c(=O)cc(CCC(=O)OCC)oc12 | 127 to 128 |
| COCc1ccc(OCC(=O)O)c(NC(=O)c2ccc(OCCCCc3ccccc3)cc2)c1 | 126 to 129 |
| COc1cccc2nc(C(F)(F)F)oc(=O)c12 | 88 to 91 |

Continued, values first:

| melting point [°C] | SMILES |
| --- | --- |
| 150 | CCCCn1ccc(N2CCC(c3ccc(C(C)(C)O)cc3F)CC2)c(Cl)c1=O |
| > 320 | O=C(CCN1CCCC1)Nc1ccc2[nH]c3ccc(NC(=O)CCN4CCCC4)cc3c(=O)c2c1 |
| 191 to 193 | NS(=O)(=O)c1ccc(-n2nc(C(F)(F)F)c(Cl)c2-c2ccc(-c3cncs3)c(Cl)c2)cn1 |
| 194 to 195 | CC(C)(CO)NC(=O)c1nn(C2CCCCO2)cc1NC(=O)c1ccccn1 (centres undefined) |
| 264 | C#CCN(c1ccc(C(=O)O)cc1)C1CCc2cc3nc(C)[nH]c(=O)c3cc21 (racemic) |
| > 250 | CCOC(=O)c1nc2c(=O)[nH]c3cc(F)ccc3n2c1C |
| 94 to 97 | CC(C)(C)c1ccc(OCC(O)CN2CCC3(CC2)CSC2=C(O3)c3cc(-c4ccccc4)ccc3C(=O)C2=O)cc1 (centres undefined) |
| 248 | Cc1cccc(N)c1C(=O)Nc1nnn[nH]1 |
| 248 | Fc1cc(F)c(-c2c(F)nc3ncncc3c2F)c(F)c1 |
| 297 to 300 | O=C(O)c1cc2cc(-c3ccc(O)cc3)ccc2o1 |
| 217 to 219 | COc1ccc(-c2c3c(cc4ccc5c(c24)OCO5)C(=O)OC3)cc1 |
| 106 | COc1cc(C)nc(NC(=O)NS(=O)(=O)c2c(Br)csc2C(=O)c2cccs2)n1 |
| 192 to 194 | COC(=O)c1c(-c2ccccc2)nc2c(c1N)c1c(n2Cc2ccc(OC)cc2)CCCC1 |
| 166 to 168 | Cc1cccc2ncc3nnnn3c12 |
| 166 | CCCCc1ccc2nc(Cl)c(S(N)(=O)=O)n2n1 |
| 138 to 139 | CCOc1cc(N(CC)CC)ccc1-c1nc2n(C3CCCC3)[nH]c(CC)c-2c(=O)n1 |
| 264 to 265 | Clc1ccc(-c2[nH]nc(N3CCNCC3)c2-c2ccncc2)cc1 |
| 213 | CCOc1ccc2c(c1)n(C1CCCCC1)c(=O)n2S(=O)(=O)c1ccc(C(=O)Nc2nccs2)cc1OC |
| 74 to 76 | O=C(O)C(O)Cc1ccc(OCCN2CCSc3ccccc32)cc1 (centres undefined) |

| melting point [°C] | SMILES |
| --- | --- |
| 197 to 199 | OCC1OC(n2cnc3c(NN4CCCCC4)nc(F)nc32)C(O)C1O (centres undefined) |
| 195 | CCOC(=O)Cc1ccc(-c2ccc3c(=O)c(C(=O)NC)c(N)n(CC)c3n2)cc1 |
| 220 to 225 | Nc1nc(-c2ccc(CCN3CCN(c4cccc5cc(F)ccc45)CC3)cc2)cs1 |
| 234 to 237 | CCC(=O)Nc1nnc(S)s1 |
| 238 to 240 | CSc1nc(N)n2nc(-c3ccco3)nc2n1 |
| 287 to 289 | Cc1ncc2cc(-c3c(Cl)cccc3Cl)c(N)nc2n1 |
| 130 to 131 | O=C(OCc1ccccc1)On1nnc2ccccc21 |
| 97 to 98 | O=C(c1ccc(OCCN2CCCC2)cc1)c1c(-c2ccc(Cl)cc2)sc2ccccc12 |
| 83 to 84 | CCOC(=O)c1cc2c(nc1COc1ccc(C=O)cc1)CCCCC2 |
| 208 to 213 | O=C(O)c1cc(Br)c(Cl)cc1O |
| 99 to 100 | CCC(=O)Cc1cc2cc(OCCNC[C@H](O)COc3ccccc3)ccc2o1 |
| 120 | CCOC(=O)c1ccc(NC(=O)NCCN2CCN=C2c2ccncc2)cc1 |
| 176 to 178 | C[C@]1(COC(=O)N2CCN(N=Cc3ccc(C(F)(F)F)cc3)CC2)Cn2cc([N+](=O)[O-])nc2O1 |
| 90 to 92 | CCOC(=O)C(=CNC1CC1)C(=O)c1cc(F)c(-n2cccc2)cc1F |
| 239 | Fc1ccc2c(c1)C1OC1c1ccccc1C2 (centres undefined) |
| 134 to 136 | Cc1ccc(C(=O)NCN2CCN(c3ncccc3C#N)CC2)cc1 |
| 167 to 169 | CCn1ncc2c1ncc1c(N3CCN(C)CC3)nc3cc(C)nn3c12 |
| 43 to 45 | CCn1ncc2c(Cl)cc(-c3ccccc3)nc21 |

From a melting point compilation (Tetko et al.; mined from patent text by program, amines drawn as free bases though some values may be those of a salt)
